The results in this text go back to PMC8286840, “Identifying SARS-CoV-2 antiviral compounds by screening for small molecule inhibitors of Nsp3 papain-like protease” (Biochemical Journal, 2021).

Where a name gives a salt, the structure may show the parent alone. Read-outs that look alike come from different tables or passages of the source.

For assay [1], the target named is T1, SARS-CoV-2 PLpro (nsp3 1564–1878) (Severe acute respiratory syndrome coronavirus 2, UniProt P0DTD1). In words: biochemical. Set-up: FRET-quenched peptide (Pro3) cleavage by PLpro, 10 min pre-incubation, slope over 20 min, normalised to no-compound control. The settings on record: low concentration screen, read-out: % of control remaining.
The target of assay [2] is T1, SARS-CoV-2 PLpro (nsp3 1564–1878). The assay can be described thus: biochemical. The settings on record: high concentration screen, read-out: % of control remaining. More on the design: FRET-quenched peptide (Pro3) cleavage by PLpro, 10 min pre-incubation, slope over 20 min, normalised to no-compound control.

For the compound `O=C(O)CC[C@H](NC(=O)N[C@@H](CCCCNC(=O)[C@H](Cc1ccc2ccccc2c1)NC(=O)[C@H]1CC[C@H](CNC(=O)CN2CCN(CC(=O)O)CCN(CC(=O)O)CCN(CC(=O)O)CC2)CC1)C(=O)O)C(=O)O` [Vipivotide tetraxetan], in assay [1] (Well no.=7834), the remaining activity at 1.25 µM was determined as 103%. Further, the remaining activity at 3.75 µM in assay [2] (Well no.=7834) was 104%.

Take `COc1c2ccoc2cc2oc(C)cc(=O)c12` [Visnagin]: the remaining activity at 1.25 µM in assay [1] (Well no.=3689) was 99.6%. For the same compound, the remaining activity at 3.75 µM in assay [2] (Well no.=3689) worked out at 101%.

Turning to `CC(=O)OC/C=C(C)/C=C/C=C(C)/C=C/C1=C(C)CCCC1(C)C` [Vitamin A acetate], in assay [1] (Well no.=1700), the remaining activity at 1.25 µM was determined as 101%. In addition, the remaining activity at 3.75 µM in assay [2] (Well no.=1700) is 97.8%.

Turning to `C=C1CC[C@H](O)C/C1=C/C=C1\CCC[C@]2(C)[C@@H]([C@H](C)/C=C/[C@H](C)C(C)C)CC[C@@H]12` [Vitamin D2 (Ergocalciferol)], the remaining activity at 1.25 µM in assay [1] (Well no.=4684) was 99.3%. Moreover, in assay [2] (Well no.=4684), the remaining activity at 3.75 µM turned out to be 100%.

Regarding `C=C1CC[C@H](O)C/C1=C/C=C1\CCC[C@]2(C)[C@@H]([C@H](C)/C=C/[C@H](C)C(C)C)CC[C@@H]12` [Vitamin D2], the remaining activity at 1.25 µM in assay [1] (Well no.=7411) was 107%. In addition, the remaining activity at 3.75 µM in assay [2] (Well no.=7411) stood at 106%.

For the compound `C=C1CC[C@H](O)C/C1=C/C=C1\CCC[C@]2(C)[C@@H]([C@H](C)CCCC(C)C)CC[C@@H]12` [Vitamin D3 (Cholecalciferol)], in assay [1] (Well no.=4702), the remaining activity at 1.25 µM was 99.7%. Further, the remaining activity at 3.75 µM in assay [2] (Well no.=4702) amounted to 100%.

Turning to `C[C@@H]1O[C@@H](O[C@@H]2[C@@H](O)[C@H](O)[C@@H](CO)O[C@H]2c2c(O)cc(O)c3c(=O)cc(-c4ccc(O)cc4)oc23)[C@H](O)[C@H](O)[C@H]1O` [Vitexin-2-O-rhamnoside], the remaining activity at 1.25 µM in assay [1] (Well no.=3405) stood at 91.6%. Also, the remaining activity at 3.75 µM in assay [2] (Well no.=3405) stood at 80.4%.

Take `O=c1cc(-c2ccc(O)cc2)oc2c([C@@H]3O[C@H](CO)[C@@H](O)[C@H](O)[C@H]3O)c(O)cc(O)c12` [Vitexin]: the remaining activity at 1.25 µM in assay [1] (Well no.=3396) stood at 95.4%. In addition, the remaining activity at 3.75 µM in assay [2] (Well no.=3396) was 97.6%.

With `OCC(CO)N[C@H]1C[C@](O)(CO)[C@@H](O)[C@H](O)[C@H]1O` [Voglibose], the remaining activity at 1.25 µM in assay [1] (Well no.=8298) came out at 90.6%. In assay [2] (Well no.=8298), the remaining activity at 3.75 µM came to 93.5%.

Regarding `CCOC(=O)N[C@@H]1CC[C@@H]2[C@@H](C1)C[C@H]1C(=O)O[C@H](C)[C@H]1[C@H]2/C=C/c1ccc(-c2cccc(F)c2)cn1` [Vorapaxar], the remaining activity at 1.25 µM in assay [1] (Well no.=7567) was determined as 97.6%. Further, the remaining activity at 3.75 µM in assay [2] (Well no.=7567) is 89.4%.

Consider `C[C@@H](c1ncncc1F)[C@](O)(Cn1cncn1)c1ccc(F)cc1F` [Voriconazole], for which the remaining activity at 1.25 µM in assay [1] (Well no.=4857) amounted to 101%. Moreover, in assay [2] (Well no.=4857), the remaining activity at 3.75 µM stood at 103%.

Take `O=C(CCCCCCC(=O)Nc1ccccc1)NO` [Vorinostat (SAHA)]: the remaining activity at 1.25 µM in assay [1] (Well no.=1866) was 87.6%. Besides, the remaining activity at 3.75 µM in assay [2] (Well no.=1866) turned out to be 82.8%.

`Cc1ccc(Sc2ccccc2N2CCNCC2)c(C)c1` [Vortioxetine (hydrobromide)]: in assay [1] (Well no.=7384), the remaining activity at 1.25 µM is 98.6%. In addition, the remaining activity at 3.75 µM in assay [2] (Well no.=7384) came to 98.7%.

For `Cc1ccc(Sc2ccccc2N2CCNCC2)c(C)c1` [Vortioxetine], the remaining activity at 1.25 µM in assay [1] (Well no.=6269) came out at 102%. Also, the remaining activity at 3.75 µM in assay [2] (Well no.=6269) was 102%.

For the compound `COC(=O)/C(=C1/OC(=O)C(c2ccccc2)=C1O)c1ccccc1` [Vulpinic acid], the remaining activity at 1.25 µM in assay [1] (Well no.=3513) was 102%. Also, in assay [2] (Well no.=3513), the remaining activity at 3.75 µM came out at 104%.

Regarding `COc1ccccc1N1CCN(CCN(C(=O)C2CCCCC2)c2ccccn2)CC1` [WAY-100635 (maleate salt)], the remaining activity at 1.25 µM in assay [1] (Well no.=7000) came out at 99.7%. Also, the remaining activity at 3.75 µM in assay [2] (Well no.=7000) was found to be 99.5%.

With `COc1ccccc1N1CCN(CCN(C(=O)C2CCCCC2)c2ccccn2)CC1` [WAY-100635 maleate], in assay [1] (Well no.=1292), the remaining activity at 1.25 µM is 107%. Also, in assay [2] (Well no.=1292), the remaining activity at 3.75 µM stood at 107%.

With `CN(C)CCn1cc(S(=O)(=O)c2cccc(F)c2)c2cccnc21` [WAY-208466 dihydrochloride], in assay [1] (Well no.=6065), the remaining activity at 1.25 µM is 98.6%. Besides, the remaining activity at 3.75 µM in assay [2] (Well no.=6065) came out at 97.1%.
